The text below walks through data of the OPERA property sets (Mansouri et al. 2018).

For orientation: logP means a log measure of how a compound divides between an organic and an aqueous phase. A higher logP goes with higher lipophilicity. Compound `CC(C)NCC(O)COc1ccc(CCOCC2CC2)cc1` (configuration not stated) showed a logP of 2.81. The figure for `CNC(=O)COc1ccccc1OCC(O)CNC(C)(C)C` (configuration not stated) is 1.36; for `CC(=O)Nc1ccc(OCC(O)CNC(C)C)c(C(C)=O)c1` (configuration not stated) it is 0.94; for `C#CCOc1ccccc1OCC(O)CNC(C)(C)C` (configuration not stated) it is 2.32.

The compound `CC(C)NCC(O)COc1ccc(COCCOC(C)C)cc1` (configuration not stated) gave a logP of 1.87. `CC(=O)Nc1ccc(OCC(O)CNCC(O)COc2ccccc2)cc1` (configuration not stated) had a logP of 1.39.

Turning to `COc1ccccc1OCC(O)CNC(C)C` (configuration not stated), the logP stood at 1.69. The same measure for `CC(C)NC[C@H](O)COc1ccc(OCCOCCc2ccc(F)cc2)cc1`: 3.7; for `Cc1cc2c(OCC(O)CNC(C)C)cccc2[nH]1` (configuration not stated): 2.3; for `CC(=O)c1cc2cccc(OCC(O)CNC(C)C)c2o1` (configuration not stated): 2.02. The figure for `CC(C)NCC(O)COc1ccccc1C1CC1` (configuration not stated) is 3.07; for `Cc1ccccc1OCC(O)CNCC(O)COc1ccccc1C` (configuration not stated) it is 3.67.
